Data as given in article PMC11046380 (2024).

Columns and labels:
[1] = test system: BMAA_159_min (DNA, aptamer) GGCTCGGCCCTGGGTGAGGGGCGCAGTGGGGTGTAGCCAG; assay: 1H NMR titration; conditions: 100 mM NaCl, 2 mM MgCl2; 20 mM sodium phosphate, 10% D2O, 298 K; qualitative
[2] = test system: BMAA_165_min (DNA, aptamer) GGGCGTGTGTGGGAGGGGGCACTTCGTCGGGGTGAGCCAG; assay: 1H NMR titration; conditions: 100 mM NaCl, 2 mM MgCl2; 20 mM sodium phosphate, 10% D2O, 298 K; qualitative
[3] = test system: BMAA_159_min (DNA, aptamer) GGCTCGGCCCTGGGTGAGGGGCGCAGTGGGGTGTAGCCAG; assay: circular dichroism; conditions: 100 mM NaCl (100 mM KCl in legend), 5 mM MgCl2; 20 mM Tris pH 7.6, room temperature; qualitative
[4] = test system: BMAA_159 (DNA, aptamer) TGTACCGTCTGAGCGATTCGTACGGCTCGGCCCTGGGTGAGGGGCGCAGTGGGGTGTAGCCAGTCAGTGTTAAGGAGTGC; assay: SYBR Green I fluorescence displacement; conditions: 100 mM NaCl, 5 mM MgCl2; 20 mM Tris pH 7.6, room temperature; SYBR Green I displaced; one-site fit
[5] = test system: BMAA_165 (DNA, aptamer) TGTACCGTCTGAGCGATTCGTACGGGCGTGTGTGGGAGGGGGCACTTCGTCGGGGTGAGCCAGTCAGTGTTAAGGAGTGC; assay: SYBR Green I fluorescence displacement; conditions: 100 mM NaCl, 5 mM MgCl2; 20 mM Tris pH 7.6, room temperature; SYBR Green I displaced; one-site fit
[6] = test system: BMAA_165_scrambled (DNA, aptamer) TGTACCGTCTGAGCGATTCGTACAGTCGTTGGGGGGGGGGGTGAGCGTTGCGCGCGTAGCCAGTCAGTGTTAAGGAGTGC; assay: SYBR Green I fluorescence displacement; conditions: 100 mM NaCl, 5 mM MgCl2; 20 mM Tris pH 7.6, room temperature; SYBR Green I displaced; up to 25 μM BMAA
[7] = test system: BMAA_172 (DNA, aptamer) TGTACCGTCTGAGCGATTCGTACGGGGGCCAGTGAATGAGTTGGGGTGGTAATGGGGAGCCAGTCAGTGTTAAGGAGTGC; assay: SYBR Green I fluorescence displacement; conditions: 100 mM NaCl, 5 mM MgCl2, 20 mM Tris pH 7.6, room temperature, four of five candidates bind, not named
[8] = test system: BMAA_38 (DNA, aptamer) TGTACCGTCTGAGCGATTCGTACGGGGGTTCACGCTCGAGGGGGCCACAGGGGGAGTAGCCAGTCAGTGTTAAGGAGTGC; assay: SYBR Green I fluorescence displacement; conditions: 100 mM NaCl, 5 mM MgCl2, 20 mM Tris pH 7.6, room temperature, four of five candidates bind, not named
[9] = test system: BMAA_165_min (biosensing) (DNA, aptamer) GGGCGTGTGTGGGAGGGGGCACTTCGTCGGGGTG; assay: electrochemical aptamer sensor (SWV, EIS); conditions: 4 mM NaCl, 0.2 mM MgCl2
[10] = test system: BMAA_159_min (FAM-labeled) (DNA, aptamer) GGCTCGGCCCTGGGTGAGGGGCGCAGTGGGGTGTAGCCAG; assay: BMAA-conjugated plate fluorescence assay; conditions: 100 mM NaCl, 5 mM MgCl2, 20 mM Tris pH 7.6, room temperature, immobilised compound on streptavidin plate
[11] = test system: BMAA_165_min (FAM-labeled) (DNA, aptamer) GGGCGTGTGTGGGAGGGGGCACTTCGTCGGGGTGAGCCAG; assay: BMAA-conjugated plate fluorescence assay; conditions: 100 mM NaCl, 5 mM MgCl2, 20 mM Tris pH 7.6, room temperature, immobilised compound on streptavidin plate

| SMILES | binding [1] | binding [2] | binding [3] | Kd [4] | Kd [5] | binding [6] | apparent Kd [7] | apparent Kd [8] | binding [9] | apparent Kd [10] | apparent Kd [11] |
| --- | --- | --- | --- | --- | --- | --- | --- | --- | --- | --- | --- |
| CNC[C@H](N)C(=O)O | yes | yes | yes | 2200 ± 100 nM | 320 ± 20 nM | no | 6.50 (5.23-9.56) uM | 18.6 (3.08-102) uM | yes | – | – |
| CNCC(NC(=O)CCOCCOCCOCCOCCNC(=O)CCCC[C@@H]1SC[C@@H]2NC(=O)N[C@@H]21)C(=O)O (some centres unmarked) | – | – | – | – | – | – | – | – | – | 6000 ± 1000 nM | 630 ± 20 nM |
